Several values for one entry are separate records, joined by “and”; a condition that tells them apart may be missing. Equal values may be shown once.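 Assay format: 96-well plates, 48-hour exposure. At the GI50, growth is halved. TGI: total growth inhibition.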
Assays:
Test in all cases: inhibition of tumour cell growth, NCI panel, 48 h
DMS 273 small cell lung = system: DMS 273 small cell lung
SNB-78 CNS = system: SNB-78 CNS
NCI-H522 lung = system: NCI-H522 lung
SF-295 CNS = system: SF-295 CNS
COLO 205 colon = system: COLO 205 colon
KM20L2 colon = system: KM20L2 colon
LXFL 529 NSCLC = system: LXFL 529 NSCLC
SF-268 CNS = system: SF-268 CNS
DMS 114 small cell lung = system: DMS 114 small cell lung
OVCAR-5 ovarian = system: OVCAR-5 ovarian
M19-MEL melanoma = system: M19-MEL melanoma
HOP-18 NSCLC = system: HOP-18 NSCLC
XF 498 CNS = system: XF 498 CNS
SN12K1 renal = system: SN12K1 renal
DLD-1 colon = system: DLD-1 colon
PC-3 prostate = system: PC-3 prostate

| Compound | TGI (DMS 273 small cell lung) [µM] | TGI (SNB-78 CNS) [µM] | TGI (NCI-H522 lung) | TGI (SF-295 CNS) | TGI (COLO 205 colon) | TGI (KM20L2 colon) [µM] | TGI (LXFL 529 NSCLC) [µM] | TGI (SF-268 CNS) | TGI (DMS 114 small cell lung) [µM] | TGI (OVCAR-5 ovarian) [µM] | TGI (M19-MEL melanoma) [µM] | TGI (HOP-18 NSCLC) [µM] | TGI (XF 498 CNS) [µM] | TGI (SN12K1 renal) [µM] | TGI (DLD-1 colon) [µM] | TGI (PC-3 prostate) | GI50 (PC-3 prostate) | GI50 (OVCAR-5 ovarian) |
| --- | --- | --- | --- | --- | --- | --- | --- | --- | --- | --- | --- | --- | --- | --- | --- | --- | --- | --- |
| S=c1ncc2c([nH]1)C1c3ccccc3C2c2ccccc21 | > 100 | > 100 | > 100 µM | > 100 µM | > 100 µM | > 100 | > 100 | > 100 µM | > 100 | > 100 | > 100 |  |  |  |  |  |  |  |
| Cn1c2ccccc2c(=O)c2c(O)cc3c(c21)C=CC(C)(C)O3 | > 25 | > 25 | > 25 µM | > 25 µM | > 25 µM | > 25 |  | > 25 µM | > 25 | > 25 | > 25 | > 25 | > 25 | > 25 | > 25 |  |  |  |
| CCOC(=O)c1nc2ccc(C(F)(F)F)cc2nc1NCc1ccc(OC)c(OC)c1 |  |  | > 100 µM | > 100 µM | > 100 µM |  |  | > 100 µM |  | > 100 |  |  |  |  |  | > 100 µM |  |  |
| CCC(C)[C@@H](Nc1c(O)c2c(c(O)c1Cl)C(=O)C=CC2=O)C(=O)OC (stereo partly specified) |  |  | 4.92 µM | > 10 µM | 4.02 µM |  |  | > 10 µM |  | > 10 |  |  |  |  |  | > 10 µM |  |  |
| CC1=CC[C@@]2(C)CC[C@](O)(C(C)C)C2C(OC(=O)c2ccccc2)C1 (stereo partly specified) |  |  | 33.2 µM | 34.8 µM | 43 µM |  |  | 51.7 µM |  | 30.1 |  |  |  |  |  | 45.6 µM |  |  |
| CSCSCC(CO)NC(=O)/C(C)=C\c1c(C)[nH]c(=O)[nH]c1=O (stereo unspecified) | > 250 | > 250 | > 250 µM | > 250 µM | > 250 µM | > 250 |  | > 250 µM | > 250 | > 250 | > 250 |  | > 224 | > 250 | > 250 |  |  |  |
| COc1cccc(C2c3cc4c(cc3OC(NNS(=O)(=O)c3ccc(C)cc3)C2C)OCO4)c1OC (stereo unspecified) |  |  | 8.61 µM | > 100 µM | 3.79 µM |  |  | > 100 µM |  | 74.2 |  |  |  |  |  | 92.4 µM |  |  |
| Cc1cc(=O)oc2cc(OCC(O)COC(C)C)ccc12 (stereo unspecified) |  |  | > 100 µM | > 100 µM | > 100 µM |  |  | > 100 µM |  | > 100 |  |  |  |  |  | > 100 µM |  |  |
| Clc1ccc(CCN[C@H]2CCCC[C@H]2N2CCCC2)cc1Cl |  |  | 32.9 µM | 30.2 µM | 29.8 µM |  |  | > 100 µM |  | 78.1 |  |  |  |  |  | > 100 µM |  |  |
| CC(C)=CCCC(C)CCOS(=O)C(F)(F)F (stereo unspecified) |  |  | 5.12 µM | 86.8 µM | 20.2 µM |  |  | 44.7 µM |  | 47.8 |  |  |  |  |  | 45.3 µM |  |  |
| C=CC1CN(C(=O)OCC)N(C(=O)OCC)C1CCc1ccccc1 (stereo unspecified) |  |  | > 100 µM | > 100 µM | > 100 µM |  |  | > 100 µM |  | > 100 |  |  |  |  |  | > 100 µM |  |  |
| CC(=O)c1ccc2c(c1)CC1(C2)Cc2cc3c(c(C(=O)O)c2C1)CCC3 (stereo unspecified) |  |  | > 100 µM | > 100 µM | > 100 µM |  |  | > 100 µM |  | > 100 |  |  |  |  |  | > 100 µM |  |  |
| COc1ccc2c(c1)/C(=C\c1c(Cl)[nH]c3ccccc13)C(=O)N2 |  |  | 11.5 µM | 6.26 µM | 6.6 µM |  |  | 16 µM |  | 26.8 |  |  |  |  |  | 18 µM |  |  |
| COC(=O)CCNC(=O)OCc1ccccc1 |  |  | > 100 µM | > 100 µM | > 100 µM |  |  | > 100 µM |  | > 100 |  |  |  |  |  | > 100 µM |  |  |
| CCOC(=O)NC(Nc1ccc(F)cc1)(C(=O)OCC)C(F)(F)F (stereo unspecified) |  |  | > 100 µM | > 100 µM | > 100 µM |  |  | > 100 µM |  | > 100 |  |  |  |  |  | > 100 µM |  |  |
| COc1ccc(COC(=O)NCC(=O)NC(C)C(=O)NC(Cc2ccccc2)C(=O)OCc2ccccc2)cc1 (stereo unspecified) |  |  | 29.3 µM and 31.1 µM | 47.8 µM and 39.1 µM | 80.8 µM and 52.9 µM |  |  | > 100 µM and 55.2 µM |  | > 100 |  |  |  |  |  | 47.8 µM and > 100 µM | 20 µM and > 100 µM | 36.3 µM and > 100 µM |
| CC(=O)OCC1OC(n2c3c(c(-c4ccc(Cl)cc4)c(C#N)c2=S)CCCC3)C(OC(C)=O)C(OC(C)=O)C1OC(C)=O (stereo unspecified) |  |  | > 100 µM | > 100 µM | > 100 µM |  |  | > 100 µM |  | > 100 |  |  |  |  |  | 69.1 µM |  |  |
| O=C1CC(CC(=O)c2ccc(Br)cc2)C(=O)/C1=C(/O)c1ccc(Br)cc1 (stereo unspecified) |  |  | > 100 µM | > 100 µM | > 100 µM |  |  | > 100 µM |  | > 100 |  |  |  |  |  | > 100 µM |  |  |
| O=C1Nc2nccnc2C(=O)N2CCC[C@@H]12 |  |  | > 100 µM | > 100 µM | > 100 µM |  |  | > 100 µM |  | > 100 |  |  |  |  |  | > 100 µM |  |  |
| COc1nc(N)c(NC(C)=O)c(=O)n1C | > 100 | > 100 |  | > 100 µM | > 100 µM | > 100 | > 100 | > 100 µM | > 100 | > 100 |  | > 100 | > 100 |  | > 100 |  |  |  |
| CC1CCC2CC(=O)OC([C@@H]3C(=O)O[C@@H](C4=CCCC4)C4C(C)CCC43)C12 (stereo partly specified) | > 100 | > 100 | > 100 µM | > 100 µM | > 100 µM | > 100 | > 100 | > 100 µM | > 100 |  | > 100 | > 100 | > 100 |  | > 100 |  |  |  |

Reference: PubChem BioAssay (NCI)
